Laboratory results from patent publication US10189840B2, “Substituted tricyclic heterocyclic compounds” (BRISTOL-MYERS SQUIBB COMPANY, priority 2015, dated 2019).

Biological target: TNFα (Homo sapiens (Human), UniProt P01375)
Assay: TNF induced HEK-Blue assay
Type: cell-based
Conditions: TNFα 0.5 ng/ml; HEK-Blue-CD40L cells, NF-κB-driven secreted alkaline phosphatase reporter; 18 h
Procedure: Test compounds serially diluted in DMSO were plated in an assay plate (Labcyte, Cat. #LP-0200) at final concentrations ranging from 0.004 μM to 25 μM. TNFα (final concentration 0.5 ng/ml) or CD40L (final concentration 30 ng/ml) in assay buffer [DMEM, 4.5 g/l glucose (Gibco, Cat. 21063-029), 10% FBS (Sigma, F4135), 1% Penicillin-Streptomycin (Gibco, Cat. 15140-122), 1% Anti-Anti (Gibco, Cat. 15240-112) and 2 mM L-glutamine (Gibco, Cat. 25030-081)] was then added to the assay plate. After a 30 minute pre-incubation at 37° C. and 5% CO2, HEK-Blue-CD40L cells (InvivoGen, Cat. Code hkb-cd40) containing a NF-κB-driven secreted alkaline phosphatase reporter gene were seeded into the assay plate at a density of 20,000 cells per well. This plate was then incubated for 18 h at 37° C. and 5% CO2. Secreted alkaline phosphatase expression was measured using QUANTI-Blue (InvivoGen, Cat. Code rep-qb1) according to manufacturer's specifications and the assay plate was read on a PerkinElmer Envision at 620 nm.
Inhibition data for the test compound over a range of concentrations was plotted as percentage inhibition of the test compound (100%=maximum inhibition). IC50 values were determined after correcting for background [(sample read−mean of low control)/(mean of high control−mean of low control)] where by the low control is DMSO without stimulation and high control is DMSO with stimulation. The IC50 is defined as the concentration of test compound which produces 50% inhibition and was quantified using the 4 parameter logistic equation to fit the data.
Table 5 lists the IC50 values measured in the TNF induced HEK-Blue assay for Examples 1 to 40 of this invention.

Chain of TNFα (P01375 77-233): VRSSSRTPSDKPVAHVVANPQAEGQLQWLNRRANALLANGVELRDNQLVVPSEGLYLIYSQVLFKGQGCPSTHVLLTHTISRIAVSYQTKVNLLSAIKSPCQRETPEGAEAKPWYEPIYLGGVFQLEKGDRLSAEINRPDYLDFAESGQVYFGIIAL

IC50 [µM]	SMILES
10 to 25	COc1ccc(-c2ccc3nc4n(c3n2)C(c2ccccc2OC(F)F)CC4F)cn1 (single isomer, unassigned) [Example 18 (e2), 8-(2-(difluoromethoxy)phenyl)-6-fluoro-2-(6-methoxypyridin-3-yl)-7,8-dihydro-6H-pyrrolo[2′,1′:2,3]imidazo[4,5-b]pyridine]
< 1	CC(C)(O)c1ccc(-c2ccc3nc4n(c3n2)C(c2ccccc2C2CC2)CC4F)cc1 (single isomer, unassigned) [Example 21 (e1), 2-(4-(8-(2-cyclopropylphenyl)-6-fluoro-7,8-dihydro-6H-pyrrolo[2′,1′:2,3]imidazo[4,5-b]pyridin-2-yl)phenyl)propan-2-ol]
1 to 10	CC(C)(O)c1ccc(-c2ccc3nc4n(c3n2)C(c2ccccc2C2CC2)CC4F)cc1 (single isomer, unassigned) [Example 21 (e2), 2-(4-(8-(2-cyclopropylphenyl)-6-fluoro-7,8-dihydro-6H-pyrrolo[2′,1′:2,3]imidazo[4,5-b]pyridin-2-yl)phenyl)propan-2-ol]
< 1	CC(C)(O)c1ccc(-c2ccc3nc4n(c3n2)C(c2ccccc2C2CC2)CC4F)cc1 (single isomer, unassigned) [Example 21 (e4), 2-(4-(8-(2-cyclopropylphenyl)-6-fluoro-7,8-dihydro-6H-pyrrolo[2′,1′:2,3]imidazo[4,5-b]pyridin-2-yl)phenyl)propan-2-ol]
< 1	CC(C)(O)c1ccc(-c2ccc3nc4n(c3n2)C(c2ccccc2OC(F)(F)F)CC4F)cc1 (single isomer, unassigned) [Example 22 (e1), 2-(4-(6-fluoro-8-(2-(trifluoromethoxy)phenyl)-7,8-dihydro-6H-pyrrolo[2′,1′:2,3]imidazo[4,5-b]pyridin-2-yl)phenyl)propan-2-ol]
1 to 10	CC(C)(O)c1ccc(-c2ccc3nc4n(c3n2)C(c2ccccc2OC(F)(F)F)CC4F)cc1 (single isomer, unassigned) [Example 22 (e2), 2-(4-(6-fluoro-8-(2-(trifluoromethoxy)phenyl)-7,8-dihydro-6H-pyrrolo[2′,1′:2,3]imidazo[4,5-b]pyridin-2-yl)phenyl)propan-2-ol]
< 1	CC(C)(O)c1ccc(-c2ccc3nc4n(c3n2)C(c2ccccc2OC(F)(F)F)CC4F)cc1 (single isomer, unassigned) [Example 22 (e4), 2-(4-(6-fluoro-8-(2-(trifluoromethoxy)phenyl)-7,8-dihydro-6H-pyrrolo[2′,1′:2,3]imidazo[4,5-b]pyridin-2-yl)phenyl)propan-2-ol]
1 to 10	CC(C)(O)c1ccc(-c2ccc3nc4n(c3n2)C(c2c(F)cccc2C(F)(F)F)CC4F)cc1 (single isomer, unassigned) [Example 23 (e2), 2-(4-(6-fluoro-8-(2-fluoro-6-(trifluoromethyl)phenyl)-7,8-dihydro-6H-pyrrolo[2′,1′:2,3]imidazo[4,5-b]pyridin-2-yl)phenyl)propan-2-ol]
1 to 10	CC(C)(O)c1ccc(-c2ccc3nc4n(c3n2)C(c2cc(F)ccc2C(F)(F)F)CC4F)cc1 (single isomer, unassigned) [Example 24 (e1), 2-(4-(6-fluoro-8-(5-fluoro-2-(trifluoromethyl)phenyl)-7,8-dihydro-6H-yrrolo[2′,1′:2,3]imidazo[4,5-b]pyridin-2-yl)phenyl)propan-2-ol]
1 to 10	CC(C)(O)c1ccc(-c2ccc3nc4n(c3n2)C(c2cc(F)ccc2C(F)(F)F)CC4F)cc1 (single isomer, unassigned) [Example 24 (e2), 2-(4-(6-fluoro-8-(5-fluoro-2-(trifluoromethyl)phenyl)-7,8-dihydro-6H-yrrolo[2′,1′:2,3]imidazo[4,5-b]pyridin-2-yl)phenyl)propan-2-ol]
< 1	CC(C)(O)c1ccc(-c2ccc3nc4n(c3n2)C(c2ccccc2C(F)(F)F)CC4)cc1 (single isomer, unassigned) [Example 25 (e1), 2-(4-(8-(2-(Trifluoromethyl)phenyl)-7,8-dihydro-6H-pyrrolo[2′,1′:2,3]imidazo[4,5-b]pyridin-2-yl)phenyl)propan-2-ol]
< 1	CC(C)(O)c1ccc(-c2ccc3nc4n(c3n2)C(c2ccccc2C(F)(F)F)CC4)cc1 (single isomer, unassigned) [Example 25 (e2), 2-(4-(8-(2-(Trifluoromethyl)phenyl)-7,8-dihydro-6H-pyrrolo[2′,1′:2,3]imidazo[4,5-b]pyridin-2-yl)phenyl)propan-2-ol]
< 1	CC(C)(O)c1ccc(-c2ccc3nc4n(c3n2)C(c2ccccc2OC(F)F)CC4)cc1 (single isomer, unassigned) [Example 26 (e1), 2-(4-(8-(2-(difluoromethoxy)phenyl)-7,8-dihydro-6H-pyrrolo[2′,1′:2,3]imidazo[4,5-b]pyridin-2-yl)phenyl)propan-2-ol]
10 to 25	CC(C)(O)c1ccc(-c2ccc3nc4n(c3n2)C(c2ccccc2OC(F)F)CC4)cc1 (single isomer, unassigned) [Example 26 (e2), 2-(4-(8-(2-(difluoromethoxy)phenyl)-7,8-dihydro-6H-pyrrolo[2′,1′:2,3]imidazo[4,5-b]pyridin-2-yl)phenyl)propan-2-ol]
< 1	CC(C)(O)c1ccc(-c2ccc3nc4n(c3n2)C(c2c(F)cccc2C(F)(F)F)CC4)cc1 (single isomer, unassigned) [Example 32 (e1), 2-(4-(8-(2-fluoro-6-(trifluoromethyl)phenyl)-7,8-dihydro-6H-pyrrolo[2′,1′:2,3]imidazo[4,5-b]pyridin-2-yl)phenyl)propan-2-ol]
< 1	CC(C)(O)c1ccc(-c2ccc3nc4n(c3n2)C(c2ccccc2C2CC2)CC4)cc1 (single isomer, unassigned) [Example 33 (e1), 2-(4-(8-(2-cyclopropylphenyl)-7,8-dihydro-6H-pyrrolo[2′,1′:2,3]imidazo[4,5-b]pyridin-2-yl)phenyl)propan-2-ol]
1 to 10	CC(C)(O)c1ccc(-c2ccc3nc4n(c3n2)C(c2ccccc2C2CC2)CC4)cc1 (single isomer, unassigned) [Example 33 (e2), 2-(4-(8-(2-cyclopropylphenyl)-7,8-dihydro-6H-pyrrolo[2′,1′:2,3]imidazo[4,5-b]pyridin-2-yl)phenyl)propan-2-ol]
< 1	CC(C)(O)c1ccc(-c2ccc3nc4n(c3n2)C(c2cc(F)ccc2C(F)(F)F)CC4)cc1 (single isomer, unassigned) [Example 34 (e1), 2-(4-(8-(5-fluoro-2-(trifluoromethyl)phenyl)-7,8-dihydro-6H-pyrrolo[2′,1′:2,3]imidazo[4,5-b]pyridin-2-yl)phenyl)propan-2-ol]
1 to 10	CC(C)(O)c1ccc(-c2ccc3nc4n(c3n2)C(c2cc(F)ccc2C(F)(F)F)CC4)cc1 (single isomer, unassigned) [Example 34 (e2), 2-(4-(8-(5-fluoro-2-(trifluoromethyl)phenyl)-7,8-dihydro-6H-pyrrolo[2′,1′:2,3]imidazo[4,5-b]pyridin-2-yl)phenyl)propan-2-ol]
1 to 10	CC(C)(O)c1ccc(-c2ccc3nc4n(c3n2)C(c2c(F)cccc2C(F)(F)F)CC4O)cc1 (centres unmarked) [Example 3 (e4), 8-(2-fluoro-6-(trifluoromethyl)phenyl)-2-(4-(2-hydroxypropan-2-yl)phenyl)-7,8-dihydro-6H-pyrrolo[2′,1′:2,3]imidazo[4,5-b]pyridin-6-ol]
